Measurements: US20200010814A1, “NOVEL MONOOXYGENASE AND UTILIZATION THEREOF” (KANEKA CORPORATION, priority 2017, published 2020)

System: pQAH1/pRAT1 Rhodococcus erythropolis L88
Experiment: Evaluation of substrate specificity
Format: cell-based
Details: 10 mM substrate, 5% glucose, 26 hours of reaction; NMR and optical rotation analyses
Description: pQAH1/pRAT1 Rhodococcus erythropolis L88 was cultured in an LB medium by a method similar to that for Example 5. Expression of a protein was induced with 0.2 μg/ml of thiostrepton, and then 10 mM of each of L-isovaline, D-isovaline, L-aminobutyrate, and D-aminobutyrate was added together with 5% glucose. After 26 hours of reaction, the reaction supernatant was analyzed by the LCMS analysis method used for Example 1.

CC[C@@H](N)C(=O)O [D-aminobutyrate]
product of the hydroxylation reaction of the substrate: D-allo-threonine

CC[C@@](C)(N)C(=O)O [D-isovaline]
product of the hydroxylation reaction of the substrate: (2R,3R)-2-methyl threonine

CC[C@H](N)C(=O)O [L-aminobutyrate]
product of the hydroxylation reaction of the substrate: L-allo-threonine

CC[C@](C)(N)C(=O)O [L-isovaline]
product of the hydroxylation reaction of the substrate: (2S,3S)-2-methyl threonine
